For this test, the target named is T1, human ACC2 (Homo sapiens, UniProt O00763).
T1 construct: made in house; host or cells: insect cells, baculoviral expression system
T1 sequence (O00763 129-2458 limits assumed): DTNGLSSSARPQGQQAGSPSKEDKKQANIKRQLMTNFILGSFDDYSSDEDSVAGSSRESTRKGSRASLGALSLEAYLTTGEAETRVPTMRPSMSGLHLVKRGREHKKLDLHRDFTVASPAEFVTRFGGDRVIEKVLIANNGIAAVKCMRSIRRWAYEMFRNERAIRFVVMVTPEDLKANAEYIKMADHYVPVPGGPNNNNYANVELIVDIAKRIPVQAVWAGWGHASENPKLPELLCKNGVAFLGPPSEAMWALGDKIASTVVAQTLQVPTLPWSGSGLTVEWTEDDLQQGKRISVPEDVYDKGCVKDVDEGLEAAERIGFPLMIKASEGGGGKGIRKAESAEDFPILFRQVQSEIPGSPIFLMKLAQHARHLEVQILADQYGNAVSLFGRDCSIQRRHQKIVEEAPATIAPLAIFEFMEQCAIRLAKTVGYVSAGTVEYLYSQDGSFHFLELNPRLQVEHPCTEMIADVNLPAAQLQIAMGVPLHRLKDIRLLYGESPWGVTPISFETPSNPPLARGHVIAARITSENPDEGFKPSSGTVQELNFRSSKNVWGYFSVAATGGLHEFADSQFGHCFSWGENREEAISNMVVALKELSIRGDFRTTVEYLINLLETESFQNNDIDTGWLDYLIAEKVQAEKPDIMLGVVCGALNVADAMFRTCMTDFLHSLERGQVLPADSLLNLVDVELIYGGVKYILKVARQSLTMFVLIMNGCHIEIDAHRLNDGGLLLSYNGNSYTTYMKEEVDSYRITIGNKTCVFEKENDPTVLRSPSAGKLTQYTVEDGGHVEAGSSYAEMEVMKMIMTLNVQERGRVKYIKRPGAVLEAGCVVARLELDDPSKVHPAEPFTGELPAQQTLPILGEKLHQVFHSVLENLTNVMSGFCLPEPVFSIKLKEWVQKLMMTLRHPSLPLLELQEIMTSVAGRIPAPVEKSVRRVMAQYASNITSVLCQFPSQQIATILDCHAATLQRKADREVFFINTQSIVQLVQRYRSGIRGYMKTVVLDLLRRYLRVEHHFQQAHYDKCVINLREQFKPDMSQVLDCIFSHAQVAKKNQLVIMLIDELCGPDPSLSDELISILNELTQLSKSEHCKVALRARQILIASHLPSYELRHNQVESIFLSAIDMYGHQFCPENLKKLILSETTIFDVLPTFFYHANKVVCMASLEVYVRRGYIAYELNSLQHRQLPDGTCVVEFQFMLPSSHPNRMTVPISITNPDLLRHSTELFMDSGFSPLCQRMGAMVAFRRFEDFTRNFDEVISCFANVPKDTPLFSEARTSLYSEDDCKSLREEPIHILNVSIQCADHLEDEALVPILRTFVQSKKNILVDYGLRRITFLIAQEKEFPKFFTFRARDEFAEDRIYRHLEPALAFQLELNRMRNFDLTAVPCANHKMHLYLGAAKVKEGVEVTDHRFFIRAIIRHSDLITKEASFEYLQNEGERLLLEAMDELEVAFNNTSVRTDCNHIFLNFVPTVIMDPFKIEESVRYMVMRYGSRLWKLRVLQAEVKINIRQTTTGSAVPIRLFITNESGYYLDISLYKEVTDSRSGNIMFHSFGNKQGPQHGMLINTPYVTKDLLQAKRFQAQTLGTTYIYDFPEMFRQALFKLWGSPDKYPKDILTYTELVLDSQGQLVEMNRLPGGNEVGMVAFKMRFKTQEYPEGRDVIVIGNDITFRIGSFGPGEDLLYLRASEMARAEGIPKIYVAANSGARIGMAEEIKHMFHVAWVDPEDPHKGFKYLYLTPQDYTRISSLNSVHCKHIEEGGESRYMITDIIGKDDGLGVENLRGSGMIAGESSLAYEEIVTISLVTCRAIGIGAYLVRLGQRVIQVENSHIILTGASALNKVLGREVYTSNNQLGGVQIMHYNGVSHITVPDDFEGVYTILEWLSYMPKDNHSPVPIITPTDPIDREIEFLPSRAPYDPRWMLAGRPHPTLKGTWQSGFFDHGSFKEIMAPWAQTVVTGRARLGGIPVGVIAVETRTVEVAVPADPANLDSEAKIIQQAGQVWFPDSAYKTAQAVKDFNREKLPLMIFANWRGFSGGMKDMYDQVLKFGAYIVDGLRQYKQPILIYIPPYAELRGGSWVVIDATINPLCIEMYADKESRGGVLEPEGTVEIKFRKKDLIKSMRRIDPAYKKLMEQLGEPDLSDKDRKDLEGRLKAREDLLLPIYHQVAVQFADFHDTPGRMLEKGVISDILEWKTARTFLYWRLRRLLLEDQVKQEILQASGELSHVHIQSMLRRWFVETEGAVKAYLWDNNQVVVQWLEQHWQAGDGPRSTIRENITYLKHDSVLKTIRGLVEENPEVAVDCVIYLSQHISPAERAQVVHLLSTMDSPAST
The test is described as follows: ACC2 assay, spectrophotometric 384 well assay (NADH-linked, coupled lactate dehydrogenase/pyruvate kinase). In kind it is biochemical. As to conditions: hACC2 construct lacking the 128 N-terminal amino acids; 25° C., 340 nm, 15 minutes. As to the method: Spectrophotometric 384 Well Assay
Malonyl CoA formation by acetyl CoA carboxylases is stoichometrically linked to the consumption of ATP. ACC2 activity is measured in a NADH-linked kinetic method measuring ADP generated during the ACC reaction using a coupled lactate dehydrogenase/pyruvate kinase reaction.
For biological testing, a human ACC2 construct which lacks the 128 amino acids at the N-terminus for increased solubility (nt 385-6966 in Genbank entry AJ575592) is cloned. The protein is then expressed in insect cells using a baculoviral expression system. Protein purification is performed by anion exchange.
All compounds are dissolved in dimethyl sulfoxide (DMSO) to a concentration of 10 mM.
Assay reactions are then carried out in 384-well plates, with hACC2 in an appropriate dilution and at final assay concentrations (f.c.) of 100 mM Tris (pH 7.5), 10 mM trisodium citrate, 25 mM KHCO3, 10 mM MgCl2, 0.5 mg/mL BSA, 3.75 mM reduced L-glutathione, 15 U/mL lactate dehydrogenase, 0.5 mM phosphoenolpyruvate, 15 U/mL pyruvate kinase, compounds at different concentrations at final DMSO concentrations of 1%.
The enzymatic reaction is then started by addition of a mixture of NADH, acetyl Coenzyme A (both 200 μM f.c.) and ATP (500 uM f.c.). The decrease of the optical density (slope S) is then determined at 25° C. at a wavelength of 340 nm over 15 minutes in a spectrophotometric reader.
Each assay microtiter plate contains wells with vehicle instead of compound as controls for the non-inhibited enzyme (100% CTL; ‘HIGH’) and wells without acetyl-CoA as controls for non-specific NADH degradation (0% CTL; ‘LOW’). The slope S is used for calculation of % CTL=(S(compound)−S(‘LOW’))/(S(‘HIGH’)—S(‘LOW’))*100. Compounds will give values between 100% CTL (no inhibition) and 0% CTL (complete inhibition).
For IC50 value determination, the sample slope in the presence of the test compound after subtraction of the low controls (S(compound)−S(‘LOW’)) are used.
An IC50 value is derived from the compound slopes at different dosages after subtraction of the low controls (S(compound)−S(‘LOW’)) by non-linear regression curve fitting (equation y=(A+((B−A)/(1+((C/x)^D))))).
For the molecule `CCNC(=O)C(C)c1ccc(C#Cc2cccc(OCc3ccccc3)c2)cc1` (stereo not drawn) [Example 7.11], the IC50 amounted to 380 nM.
As for `CCNC(=O)C(C)c1ccc(C#Cc2cnn(Cc3ccccc3)c2)cc1` (stereo not drawn) [Example 7.12], the figure is 1000 nM; as for `CCNC(=O)C(C)c1ccc(C#Cc2cc(OCC)ncn2)cc1` (stereo not drawn) [Example 7.13], 2000 nM; as for `CCNC(=O)C(C)c1ccc(C#Cc2cncc(OC)c2)cc1` (stereo not drawn) [Example 7.14], 5000 nM.
The result for `CCNC(=O)C(C)c1ccc(C#Cc2ccc(N3CCCCC3=O)cc2)cc1` (stereo not drawn) [Example 7.15] reads 4000 nM.
`CCNC(=O)C(C)c1ccc(C#Cc2ccc(CNc3ccccn3)cc2)cc1` (stereo not drawn) [Example 7.16] showed a 50% inhibitory concentration (IC50) of 1500 nM.
As for `CCNC(=O)C(C)c1ccc(C#Cc2ccc(OC(C)(C)C)cc2)cc1` (stereo not drawn) [Example 7.17], the figure is 360 nM; as for `CCNC(=O)C(C)c1ccc(C#Cc2ccc3c(c2)C(=O)CC3)cc1` (stereo not drawn) [Example 7.18], 2200 nM.
As for `CCNC(=O)C(C)c1ccc(C#Cc2ccc3[nH]nnc3c2)cc1` (stereo not drawn) [Example 7.19], the figure is 7700 nM; as for `CCNC(=O)C(C)c1ccc(C#Cc2ccc3c(c2)OCC3)cc1` (stereo not drawn) [Example 7.20], 500 nM.
The result for `CCNC(=O)C(C)c1ccc(C#Cc2ccc(C(=O)Cn3cnc(C)c3)cc2)cc1` (stereo not drawn) [Example 7.21] reads 22500 nM; that for `CCCc1ccc(C#Cc2ccc(C(C)C(=O)NCC)cc2)cc1` (stereo not drawn) [Example 7.22], 330 nM; that for `CCNC(=O)C(C)c1ccc(C#Cc2ccc(OCC)nc2)cc1` (stereo not drawn) [Example 7.23], 560 nM.
The molecule `CCNC(=O)C(C)c1ccc(C#Cc2ccc(OC(C)C)cc2)cc1` (stereo not drawn) [Example 7.24] came in with an IC50 of 260 nM.
The result for `CCCOc1ccc(C#Cc2ccc(C(C)C(=O)NCC)cc2)cc1` (stereo not drawn) [Example 7.25] reads 70 nM; that for `CCNC(=O)C(C)c1ccc(C#Cc2ccc(CNC(C)=O)cc2)cc1` (stereo not drawn) [Example 7.26], 25500 nM; that for `CCNC(=O)C(C)c1ccc(C#Cc2ccc(COC)cc2)cc1` (stereo not drawn) [Example 7.27], 10900 nM.
In turn, `CCNC(=O)C(C)c1ccc(C#Cc2ccc(OC)nc2)cc1` (stereo not drawn) [Example 7.28] had an IC50 of 2900 nM. Against the preceding molecule, the IC50 is about 3.8-fold lower.
As for `CCNC(=O)C(C)c1ccc(C#Cc2ccc(OC(C)C)nc2)cc1` (stereo not drawn) [Example 7.29], the figure is 250 nM; as for `CCNC(=O)C(C)c1ccc(C#Cc2ccc(OC3CCCC3)nc2)cc1` (stereo not drawn) [Example 7.30], 220 nM; as for `CCNC(=O)C(C)c1ccc(C#Cc2cc(OCc3ccccc3)ncn2)cc1` (stereo not drawn) [Example 7.31], 640 nM.
`CCNC(=O)C(C)c1ccc(C#Cc2cnn(-c3ccccc3)c2)cc1` (stereo not drawn) [Example 7.32] came in with a half-maximal inhibitory concentration (IC50) of 440 nM.
The molecule `CCNC(=O)C(C)c1ccc(C#Cc2ccc(C3CC3)cn2)cc1` (stereo not drawn) [Example 7.33] displayed a half-inhibitory concentration (IC50) of 5400 nM.
As for `CCNC(=O)C(C)c1ccc(C#Cc2ccn(CC(C)C)c(=O)c2)cc1` (stereo not drawn) [Example 7.34], the figure is 1100 nM; as for `CCCCn1ccc(C#Cc2ccc(C(C)C(=O)NCC)cc2)cc1=O` (stereo not drawn) [Example 7.35], 2100 nM; as for `CCNC(=O)C(C)c1ccc(C#Cc2ccc(OC(C)C)nn2)cc1` (stereo not drawn) [Example 7.36], 3800 nM.
The molecule `CCCCOc1ccc(C#Cc2ccc(C(C)C(=O)NCC)cc2)nn1` (stereo not drawn) [Example 7.37] came in with an IC50 of 3200 nM.
Regarding `CCNC(=O)C(C)c1ccc(C#Cc2ccnc(Oc3cncnc3)c2)cc1` (stereo not drawn) [Example 7.38], the IC50 is 2900 nM.
The result for `CCCOc1ccc(C#Cc2ccc(C(C)C(=O)NCC)cc2)c(C#N)c1` (stereo not drawn) [Example 7.39] reads 1200 nM; that for `CCCOc1ccc(C#Cc2ccc(C(C)C(=O)NCC)cc2)c(Cl)c1` (stereo not drawn) [Example 7.40], 140 nM; that for `CCCOc1ccc(C#Cc2ccc(C(C)C(=O)NCC)cc2)c(OC)c1` (stereo not drawn) [Example 7.41], 510 nM.
The molecule `CCCOc1ccc(C#Cc2ccc(C(C)C(=O)NCC)cc2)c(C)c1` (stereo not drawn) [Example 7.42] showed an IC50 of 90 nM.
As to `CCCCOc1cc(C#Cc2ccc(C(C)C(=O)NCC)cc2)ccn1` (stereo not drawn) [Example 7.43], the half-maximal inhibitory concentration (IC50) was 170 nM.
`CCNC(=O)C(C)c1ccc(C#Cc2ccnc(OC(C)C)c2)cc1` (stereo not drawn) [Example 7.44] displayed an IC50 of 250 nM.
As for `CCNC(=O)C(C)c1ccc(C#Cc2ccnc(Oc3ccccc3)c2)cc1` (stereo not drawn) [Example 7.45], the figure is 390 nM.
As for `CCNC(=O)C(C)c1ccc(C#Cc2ccc(OC3CCCC3)cc2)cc1` (stereo not drawn) [Example 7.46], the figure is 110 nM.
As for `CCCOc1ccc(C#Cc2ccc(C(C)C(=O)NCC)cc2)cn1` (stereo not drawn) [Example 7.47], the figure is 490 nM.
As to `CCNC(=O)C(C)c1ccc(C#Cc2ccc(OC)c(OC)c2)cc1` (stereo not drawn) [Example 7.48], half-maximal inhibition (IC50) was put at 25700 nM. This IC50 lies about 52-fold higher than the previous one.
The result for `CCNC(=O)C(C)c1ccc(C#Cc2ccc(OC3CC3)cc2)cc1` (stereo not drawn) [Example 7.49] reads 60 nM.

(Values after patent publication US8877754B2, “Compounds, pharmaceutical compositions and uses thereof” (Boehringer Ingelheim International GmbH, priority 2010, dated 2014).)
